# ChEMBL document CHEMBL1201861, “Genomics of Drug Sensitity in Cancer screening data, Wellcome Trust Sanger Institute”
# Experiments:
# Test in all cases: cells
# [1] = tested on: NCI-H209; assay type: functional, cell-based, Homo sapiens; settings: Homo sapiens, NCI-H209;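 note: growth inhibition of human NCI-H209 cells, measured by a cell viability assay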
# Description: SANGER: Inhibition of human NCI-H209 cell growth in a cell viability assay.
# [2] = tested on: no-11; assay type: functional, cell-based, Homo sapiens; settings: Homo sapiens;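 note: growth inhibition of human NO-11 cells, read out with a cell viability assay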
# Description: SANGER: Inhibition of human no-11 cell growth in a cell viability assay.
# [3] = tested on: SW 954; assay type: functional, cell-based, Homo sapiens; settings: Homo sapiens, SW 954;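 note: growth inhibition of SW954 human cancer cells, read out as cell viability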
# Description: SANGER: Inhibition of human SW954 cell growth in a cell viability assay.
# [4] = tested on: EW-3; assay type: functional, cell-based, Homo sapiens; settings: Homo sapiens, EW-3;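 note: cell viability assay read-out, IC50 reflects inhibition of growth of the EW-3 cells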
# Description: SANGER: Inhibition of human EW-3 cell growth in a cell viability assay.
# [5] = tested on: HCC 2998; assay type: functional, cell-based, Homo sapiens; settings: Homo sapiens, HCC 2998;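 note: growth inhibition of human HCC2998 cells, measured with a cell viability read-out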
# Description: SANGER: Inhibition of human HCC2998 cell growth in a cell viability assay.
# [6] = tested on: NB10; assay type: functional, cell-based, Homo sapiens; settings: Homo sapiens, NB10;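 note: growth inhibition of NB10 cells, read out by a cell viability assay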
# Description: SANGER: Inhibition of human NB10 cell growth in a cell viability assay.
# [7] = tested on: BB30-HNC; assay type: functional, cell-based, Homo sapiens; settings: Homo sapiens, BB30-HNC;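 note: growth inhibition of the cultured cell line, read out by a cell viability assay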
# Description: SANGER: Inhibition of human BB30-HNC cell growth in a cell viability assay.
# [8] = tested on: EM-2; assay type: functional, cell-based, Homo sapiens; settings: Homo sapiens, EM-2;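 note: growth inhibition of EM-2 cells, read out with a cell viability assay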
# Description: SANGER: Inhibition of human EM-2 cell growth in a cell viability assay.
# [9] = tested on: GT3TKB; assay type: functional, cell-based, Homo sapiens; settings: Homo sapiens, GT3TKB;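 note: growth inhibition of the cell line, read out with a cell viability assay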
# Description: SANGER: Inhibition of human GT3TKB cell growth in a cell viability assay.
# [10] = tested on: RPMI-8226; assay type: functional, cell-based, Homo sapiens; settings: Homo sapiens, RPMI-8226
# Description: SANGER: Inhibition of human RPMI-8226 cell growth in a cell viability assay.
# [11] = tested on: NCI-H226; assay type: functional, cell-based, Homo sapiens; settings: Homo sapiens, NCI-H226;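 note: cell viability read-out used to gauge growth inhibition of the cells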
# Description: SANGER: Inhibition of human NCI-H226 cell growth in a cell viability assay.
# [12] = tested on: OCUB-M; assay type: functional, cell-based, Homo sapiens; settings: Homo sapiens, OCUB-M;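 note: growth inhibition of the cancer cell line, read out through a cell viability assay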
# Description: SANGER: Inhibition of human OCUB-M cell growth in a cell viability assay.
# [13] = tested on: U-87 MG; assay type: functional, cell-based, Homo sapiens, U-87MG ATCC; settings: Homo sapiens, U-87 MG;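 note: growth inhibition of the cells measured with a viability assay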
# Description: SANGER: Inhibition of human U-87-MG cell growth in a cell viability assay.
# [14] = tested on: SF-268; assay type: functional, cell-based, Homo sapiens; settings: Homo sapiens, SF-268;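 note: growth inhibition of SF-268 cells determined with a cell viability assay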
# Description: SANGER: Inhibition of human SF268 cell growth in a cell viability assay.
# [15] = tested on: LB996-RCC; assay type: functional, cell-based, Homo sapiens; settings: Homo sapiens, LB996-RCC
# Description: SANGER: Inhibition of human LB996-RCC cell growth in a cell viability assay.
# [16] = tested on: PSN1; assay type: functional, cell-based, Homo sapiens; settings: Homo sapiens, PSN1;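 note: suppression of growth of human PSN1 cells, read out by a cell viability assay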
# Description: SANGER: Inhibition of human PSN1 cell growth in a cell viability assay.
# [17] = tested on: MPP-89; assay type: functional, cell-based, Homo sapiens; settings: Homo sapiens, MPP-89;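 note: growth inhibition of human MPP-89 cells, read out with a cell viability assay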
# Description: SANGER: Inhibition of human MPP-89 cell growth in a cell viability assay.
# [18] = tested on: EW-16; assay type: functional, cell-based, Homo sapiens; settings: Homo sapiens, EW-16;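 note: growth inhibition of human EW-16 cells, read out as cell viability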
# Description: SANGER: Inhibition of human EW-16 cell growth in a cell viability assay.
# [19] = tested on: NEC8; assay type: functional, cell-based, Homo sapiens; settings: Homo sapiens, NEC8;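 note: growth inhibition of human NEC8 cells, read out by a cell viability assay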
# Description: SANGER: Inhibition of human NEC8 cell growth in a cell viability assay.
# [20] = tested on: TK-10; assay type: functional, cell-based, Homo sapiens; settings: Homo sapiens, TK-10;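 note: growth inhibition of TK-10 cells, read out in a cell viability assay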
# Description: SANGER: Inhibition of human TK10 cell growth in a cell viability assay.
# [21] = tested on: GAK; assay type: functional, cell-based, Homo sapiens; settings: Homo sapiens, GAK;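 note: cell growth inhibition read out by a cell viability assay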
# Description: SANGER: Inhibition of human GAK cell growth in a cell viability assay.
# [22] = tested on: ACN; assay type: functional, cell-based, Homo sapiens; settings: Homo sapiens, ACN;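 note: growth inhibition of the human ACN cell line, read out via cell viability testing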
# Description: SANGER: Inhibition of human ACN cell growth in a cell viability assay.
# [23] = tested on: ES8; assay type: functional, cell-based, Homo sapiens; settings: Homo sapiens, ES8;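 note: growth inhibition of human ES8 cells, read out with a cell viability assay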
# Description: SANGER: Inhibition of human ES8 cell growth in a cell viability assay.
# [24] = tested on: LS-411N; assay type: functional, cell-based, Homo sapiens; settings: Homo sapiens, LS-411N
# [25] = tested on: KINGS-1; assay type: functional, cell-based, Homo sapiens; settings: Homo sapiens, KINGS-1;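 note: cell viability assay measuring suppression of KINGS-1 cell growth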
# Description: SANGER: Inhibition of human KINGS-1 cell growth in a cell viability assay.
# [26] = tested on: MZ7-mel; assay type: functional, cell-based, Homo sapiens; settings: Homo sapiens, MZ7-mel;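 note: growth inhibition of human MZ7-mel cells, measured by a cell viability assay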
# Description: SANGER: Inhibition of human MZ7-mel cell growth in a cell viability assay.
# [27] = tested on: A704; assay type: functional, cell-based, Homo sapiens; settings: Homo sapiens, A704;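 note: growth inhibition of human A704 cells, read out with a cell viability assay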
# Description: SANGER: Inhibition of human A704 cell growth in a cell viability assay.
# [28] = tested on: SHP77; assay type: functional, cell-based, Homo sapiens, SHP-77; settings: Homo sapiens, SHP77;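 note: growth inhibition of human SHP-77 cells measured by a cell viability assay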
# Description: SANGER: Inhibition of human SHP-77 cell growth in a cell viability assay.
# [29] = tested on: SH-4; assay type: functional, cell-based, Homo sapiens; settings: Homo sapiens, SH-4;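 note: growth inhibition of SH-4 cells, read out with a cell viability assay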
# Description: SANGER: Inhibition of human SH-4 cell growth in a cell viability assay.
# [30] = tested on: ALL-PO; assay type: functional, cell-based, Homo sapiens; settings: Homo sapiens, ALL-PO;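 note: growth inhibition of ALL-PO cells, read out by a cell viability assay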
# Description: SANGER: Inhibition of human ALL-PO cell growth in a cell viability assay.
# [31] = tested on: COLO-668; assay type: functional, cell-based, Homo sapiens; settings: Homo sapiens, COLO-668
# Description: SANGER: Inhibition of human COLO-668 cell growth in a cell viability assay.
# [32] = tested on: KNS-81-FD; assay type: functional, cell-based, Homo sapiens; settings: Homo sapiens, KNS-81-FD;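 note: growth inhibition of KNS-81-FD cells, read out with a cell viability assay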
# Description: SANGER: Inhibition of human KNS-81-FD cell growth in a cell viability assay.
# [33] = tested on: HEL; assay type: functional, cell-based, Homo sapiens; settings: Homo sapiens, HEL;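 note: growth inhibition of HEL cells, read out with a cell viability assay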
# Description: SANGER: Inhibition of human HEL cell growth in a cell viability assay.
# [34] = tested on: ES1; assay type: functional, cell-based, Homo sapiens; settings: Homo sapiens, ES1;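 note: growth inhibition of ES1 cells, read out with a cell viability assay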
# Description: SANGER: Inhibition of human ES1 cell growth in a cell viability assay.
# [35] = tested on: LC-2-ad; assay type: functional, cell-based, Homo sapiens; settings: Homo sapiens, LC-2-ad;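 note: growth inhibition of human LC-2-ad cells, read out with a cell viability assay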
# Description: SANGER: Inhibition of human LC-2-ad cell growth in a cell viability assay.
# [36] = tested on: A498; assay type: functional, cell-based, Homo sapiens; settings: Homo sapiens, A498;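 note: growth inhibition of human A498 cells, read out with a cell viability assay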
# Description: SANGER: Inhibition of human A498 cell growth in a cell viability assay.
# [37] = tested on: KM-H2; assay type: functional, cell-based, Homo sapiens; settings: Homo sapiens, KM-H2;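 note: growth inhibition of KM-H2 cells, read out by a cell viability assay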
# Description: SANGER: Inhibition of human KM-H2 cell growth in a cell viability assay.
# [38] = tested on: KE-37; assay type: functional, cell-based, Homo sapiens; settings: Homo sapiens, KE-37;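 note: growth inhibition of KE-37 cells, read out with a cell viability assay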
# Description: SANGER: Inhibition of human KE-37 cell growth in a cell viability assay.
# [39] = tested on: D-502MG; assay type: functional, cell-based, Homo sapiens; settings: Homo sapiens, D-502MG
# Description: SANGER: Inhibition of human D-502MG cell growth in a cell viability assay.
# [40] = tested on: SW982; assay type: functional, cell-based, Homo sapiens; settings: Homo sapiens, SW982;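 note: growth inhibition of SW982 cells, read out with a cell viability assay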
# Description: SANGER: Inhibition of human SW982 cell growth in a cell viability assay.
# [41] = tested on: MZ2-MEL; assay type: functional, cell-based, Homo sapiens; settings: Homo sapiens, MZ2-MEL;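 note: growth inhibition of MZ2-MEL cells read out with a cell viability assay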
# Description: SANGER: Inhibition of human MZ2-MEL cell growth in a cell viability assay.
# [42] = tested on: BT-474; assay type: functional, cell-based, Homo sapiens; settings: Homo sapiens, BT-474
# Description: SANGER: Inhibition of human BT-474 cell growth in a cell viability assay.
# [43] = tested on: SW684; assay type: functional, cell-based, Homo sapiens; settings: Homo sapiens, SW684;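 note: growth inhibition of human SW684 cells, measured by a cell viability assay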
# Description: SANGER: Inhibition of human SW684 cell growth in a cell viability assay.
# [44] = tested on: SK-MEL-2; assay type: functional, cell-based, Homo sapiens; settings: Homo sapiens, SK-MEL-2;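 note: growth inhibition of human SK-MEL-2 cells measured with a cell viability assay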
# Description: SANGER: Inhibition of human SK-MEL-2 cell growth in a cell viability assay.
# [45] = tested on: CGTH-W-1; assay type: functional, cell-based, Homo sapiens; settings: Homo sapiens, CGTH-W-1;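 note: growth inhibition of human CGTH-W-1 cells measured by cell viability assay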
# Description: SANGER: Inhibition of human CGTH-W-1 cell growth in a cell viability assay.
# [46] = tested on: IST-MEL1; assay type: functional, cell-based, Homo sapiens; settings: Homo sapiens, IST-MEL1;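 note: growth inhibition of the cell line, read out with a cell viability assay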
# Description: SANGER: Inhibition of human IST-MEL1 cell growth in a cell viability assay.
# [47] = tested on: MFH-ino; assay type: functional, cell-based, Homo sapiens; settings: Homo sapiens, MFH-ino;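 note: growth inhibition of human MFH-ino cells, read out by a cell viability assay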
# Description: SANGER: Inhibition of human MFH-ino cell growth in a cell viability assay.
# [48] = tested on: HOP-62; assay type: functional, cell-based, Homo sapiens; settings: Homo sapiens, HOP-62;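 note: cell growth inhibition determined with a viability assay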
# Description: SANGER: Inhibition of human HOP-62 cell growth in a cell viability assay.
# [49] = tested on: KMOE-2; assay type: functional, cell-based, Homo sapiens; settings: Homo sapiens, KMOE-2;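 note: growth inhibition of human KMOE-2 cells, read out with a cell viability assay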
# Description: SANGER: Inhibition of human KMOE-2 cell growth in a cell viability assay.
compound,measurement,setting,value
Cn1cnc2c(F)c(Nc3ccc(Br)cc3Cl)c(C(=O)NOCCO)cc21 [SELUMETINIB],IC50,[1],> 4 µM
same,IC50,[2],> 4 µM
same,IC50,[3],0.896 µM
same,IC50,[4],2.93 µM
same,IC50,[5],0.269 µM
same,IC50,[6],> 4 µM
same,IC50,[7],2.71 µM
same,IC50,[8],0.512 µM
same,IC50,[9],> 4 µM
same,IC50,[10],0.74 µM
same,IC50,[11],> 4 µM
same,IC50,[12],> 4 µM
same,IC50,[13],> 4 µM
same,IC50,[14],> 4 µM
same,IC50,[15],3.95 µM
same,IC50,[16],0.366 µM
same,IC50,[17],> 4 µM
same,IC50,[18],> 4 µM
same,IC50,[19],> 4 µM
same,IC50,[20],> 4 µM
same,IC50,[21],1.9 µM
same,IC50,[22],0.567 µM
same,IC50,[23],> 4 µM
same,IC50,[24],> 4 µM
same,IC50,[25],> 4 µM
same,IC50,[26],> 4 µM
same,IC50,[27],> 4 µM
same,IC50,[28],> 4 µM
same,IC50,[29],0.166 µM
same,IC50,[30],> 4 µM
same,IC50,[31],> 4 µM
same,IC50,[32],> 4 µM
same,IC50,[33],> 4 µM
same,IC50,[34],> 4 µM
same,IC50,[35],> 4 µM
same,IC50,[36],> 4 µM
same,IC50,[37],> 4 µM
same,IC50,[38],> 4 µM
same,IC50,[39],> 4 µM
same,IC50,[40],> 4 µM
same,IC50,[41],0.394 µM
same,IC50,[42],> 4 µM
same,IC50,[43],> 4 µM
same,IC50,[44],0.405 µM
same,IC50,[45],> 4 µM
same,IC50,[46],> 4 µM
Nc1cccc2c1CN(C1CCC(=O)NC1=O)C2=O (centres undefined) [LENALIDOMIDE],IC50,[1],> 5 µM
same,IC50,[2],> 5 µM
same,IC50,[3],> 5 µM
same,IC50,[47],> 5 µM
same,IC50,[4],> 5 µM
same,IC50,[5],> 5 µM
same,IC50,[6],> 5 µM
same,IC50,[7],> 5 µM
same,IC50,[8],> 5 µM
same,IC50,[9],> 5 µM
same,IC50,[10],> 5 µM
same,IC50,[11],> 5 µM
same,IC50,[48],> 5 µM
same,IC50,[12],> 5 µM
same,IC50,[13],> 5 µM
same,IC50,[14],> 5 µM
same,IC50,[16],> 5 µM
same,IC50,[17],> 5 µM
same,IC50,[18],> 5 µM
same,IC50,[19],> 5 µM
same,IC50,[20],> 5 µM
same,IC50,[21],> 5 µM
same,IC50,[22],> 5 µM
same,IC50,[23],> 5 µM
same,IC50,[24],> 5 µM
same,IC50,[25],> 5 µM
same,IC50,[26],> 5 µM
same,IC50,[27],> 5 µM
same,IC50,[28],> 5 µM
same,IC50,[29],> 5 µM
same,IC50,[30],> 5 µM
same,IC50,[31],> 5 µM
same,IC50,[32],> 5 µM
same,IC50,[33],> 5 µM
same,IC50,[34],> 5 µM
same,IC50,[35],> 5 µM
same,IC50,[36],> 5 µM
same,IC50,[37],> 5 µM
same,IC50,[38],> 5 µM
same,IC50,[39],> 5 µM
same,IC50,[40],> 5 µM
same,IC50,[41],> 5 µM
same,IC50,[42],> 5 µM
same,IC50,[43],> 5 µM
same,IC50,[44],> 5 µM
same,IC50,[49],> 5 µM
same,IC50,[45],> 5 µM
same,IC50,[46],> 5 µM
